Assay results reported in patent US8624022B2, “Substituted aniline derivatives” (UCB Pharma, S.A., priority 2006, dated 2014).

Columns and labels:
Aspergillus fumigatus = assay: Proliferation assay (growth, OD600nm); type: cell-based; conditions: whole organism growth, OD600nm over 6 hours at 25° C.
Protocol: (§1) Overnight cultures of organism were diluted back to an OD600nm of 0.1 in fresh media. Test compounds were added in a final concentration of 0.5% DMSO and the OD600nm was followed over 6 hours incubation at 25° C. Compounds described herein were screened to determine their activity as inhibitors of β-1,3-glucan synthase from Candida albicans and Aspergillus fumigatus and for their ability to inhibit the growth of Candida albicans and Aspergillus fumigatus whole organisms.

Candida albicans = assay: Proliferation assay (growth, OD600nm); type: cell-based; conditions: whole organism growth, OD600nm over 6 hours at 25° C.
Protocol: as §1

[1] = target: β-1,3-glucan synthase from Aspergillus fumigatus (Aspergillus fumigatus, UniProt Q4WLT4); assay: Glucan synthase assay (membrane preparation); type: biochemical; conditions: UDP-[3H]-glucose incorporation, 30° C., 120 minutes, read-out: A. fumigatus Glucan Synth IC50
Protocol: (§2) The glucan synthase assay follows the incorporation of tritiated UDP-glucose into acid insoluble β-glucan as catalysed by the glucan synthase activity present in membrane preparations from Candida albicans and Aspergillus fumigatus. UDP-[^3H]-glucose (ca 0.01 μCi) is added to 100 μl assay buffer (50 mM Tris-Cl, pH8.0, 8% glycerol, 1 mM EDTA, 1.5 mM KF, 1 mM DTT, 20 μM GTPγS, 600 μM UDP-glucose) and the reaction initiated by the addition of 2.5 μl of enzyme preparation.
(§3) After incubation at 30° C. for 120 minutes, 10 μl of 30 mg/ml BSA is added with mixing and the reaction is terminated with 110 μl ice-cold 20% TCA. The precipitate is collected on a GF/B filter plate and washed three times with 200 μl water. Once dry, 200 μl of Microscint20 is added to each well and the plate is read on a Top-count scintillation counter.

[2] = target: β-1,3-glucan synthase from Candida albicans (Candida albicans, UniProt O13428); assay: Glucan synthase assay (membrane preparation); type: biochemical; conditions: UDP-[3H]-glucose incorporation, 30° C., 120 minutes, read-out: C. albicans Glucan Synth IC50
Protocol: as §2, §3

β-1,3-glucan synthase from Candida albicans, sequence (O13428 1-1897): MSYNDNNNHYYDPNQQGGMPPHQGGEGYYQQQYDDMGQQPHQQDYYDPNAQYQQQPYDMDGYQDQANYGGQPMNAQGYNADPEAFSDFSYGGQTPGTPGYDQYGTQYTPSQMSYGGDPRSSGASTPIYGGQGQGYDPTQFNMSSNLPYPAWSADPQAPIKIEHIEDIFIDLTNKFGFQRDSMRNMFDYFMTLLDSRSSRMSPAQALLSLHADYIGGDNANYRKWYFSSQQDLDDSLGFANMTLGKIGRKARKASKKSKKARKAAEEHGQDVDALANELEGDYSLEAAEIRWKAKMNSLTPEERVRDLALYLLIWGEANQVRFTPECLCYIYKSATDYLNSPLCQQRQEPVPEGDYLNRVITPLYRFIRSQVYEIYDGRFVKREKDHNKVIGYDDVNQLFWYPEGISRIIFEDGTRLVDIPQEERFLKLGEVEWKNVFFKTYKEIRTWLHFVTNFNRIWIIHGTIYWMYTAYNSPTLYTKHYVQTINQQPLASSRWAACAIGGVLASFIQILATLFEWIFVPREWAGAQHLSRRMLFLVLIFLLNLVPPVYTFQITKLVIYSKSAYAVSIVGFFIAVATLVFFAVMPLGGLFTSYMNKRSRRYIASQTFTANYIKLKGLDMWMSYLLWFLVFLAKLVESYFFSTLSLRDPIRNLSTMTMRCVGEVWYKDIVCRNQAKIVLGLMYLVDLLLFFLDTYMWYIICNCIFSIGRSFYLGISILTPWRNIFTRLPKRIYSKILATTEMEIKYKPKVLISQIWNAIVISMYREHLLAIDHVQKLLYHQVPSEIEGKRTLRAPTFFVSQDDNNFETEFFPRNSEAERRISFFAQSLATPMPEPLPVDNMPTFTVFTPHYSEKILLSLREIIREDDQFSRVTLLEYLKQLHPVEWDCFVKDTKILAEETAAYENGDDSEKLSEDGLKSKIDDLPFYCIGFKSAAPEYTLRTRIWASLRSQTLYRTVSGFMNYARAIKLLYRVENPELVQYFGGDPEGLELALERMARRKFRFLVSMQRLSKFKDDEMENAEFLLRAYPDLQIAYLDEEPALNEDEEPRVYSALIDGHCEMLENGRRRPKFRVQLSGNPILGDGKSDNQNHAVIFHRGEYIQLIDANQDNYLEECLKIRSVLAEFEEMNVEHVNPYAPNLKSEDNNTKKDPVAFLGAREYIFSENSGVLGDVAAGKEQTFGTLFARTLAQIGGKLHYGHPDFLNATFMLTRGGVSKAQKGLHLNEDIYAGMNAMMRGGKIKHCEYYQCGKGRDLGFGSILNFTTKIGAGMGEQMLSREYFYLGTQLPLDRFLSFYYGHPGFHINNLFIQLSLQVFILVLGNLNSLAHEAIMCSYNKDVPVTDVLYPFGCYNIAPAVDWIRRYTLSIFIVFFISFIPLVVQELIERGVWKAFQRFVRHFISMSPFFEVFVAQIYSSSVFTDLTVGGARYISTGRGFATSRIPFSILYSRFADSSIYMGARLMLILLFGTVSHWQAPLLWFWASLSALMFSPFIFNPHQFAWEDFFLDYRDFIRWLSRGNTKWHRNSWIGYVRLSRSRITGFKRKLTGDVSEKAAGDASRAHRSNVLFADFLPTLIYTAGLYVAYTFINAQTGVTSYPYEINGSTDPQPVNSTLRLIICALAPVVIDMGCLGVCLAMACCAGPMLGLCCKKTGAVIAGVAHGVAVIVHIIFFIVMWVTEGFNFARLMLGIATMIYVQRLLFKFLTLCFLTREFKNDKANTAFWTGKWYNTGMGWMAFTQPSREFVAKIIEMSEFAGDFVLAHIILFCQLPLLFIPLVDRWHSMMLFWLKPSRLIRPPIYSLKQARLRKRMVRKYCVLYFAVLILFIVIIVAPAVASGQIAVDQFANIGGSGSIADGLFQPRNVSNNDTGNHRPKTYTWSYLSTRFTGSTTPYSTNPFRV
β-1,3-glucan synthase from Aspergillus fumigatus, sequence (Q4WLT4 1-1904): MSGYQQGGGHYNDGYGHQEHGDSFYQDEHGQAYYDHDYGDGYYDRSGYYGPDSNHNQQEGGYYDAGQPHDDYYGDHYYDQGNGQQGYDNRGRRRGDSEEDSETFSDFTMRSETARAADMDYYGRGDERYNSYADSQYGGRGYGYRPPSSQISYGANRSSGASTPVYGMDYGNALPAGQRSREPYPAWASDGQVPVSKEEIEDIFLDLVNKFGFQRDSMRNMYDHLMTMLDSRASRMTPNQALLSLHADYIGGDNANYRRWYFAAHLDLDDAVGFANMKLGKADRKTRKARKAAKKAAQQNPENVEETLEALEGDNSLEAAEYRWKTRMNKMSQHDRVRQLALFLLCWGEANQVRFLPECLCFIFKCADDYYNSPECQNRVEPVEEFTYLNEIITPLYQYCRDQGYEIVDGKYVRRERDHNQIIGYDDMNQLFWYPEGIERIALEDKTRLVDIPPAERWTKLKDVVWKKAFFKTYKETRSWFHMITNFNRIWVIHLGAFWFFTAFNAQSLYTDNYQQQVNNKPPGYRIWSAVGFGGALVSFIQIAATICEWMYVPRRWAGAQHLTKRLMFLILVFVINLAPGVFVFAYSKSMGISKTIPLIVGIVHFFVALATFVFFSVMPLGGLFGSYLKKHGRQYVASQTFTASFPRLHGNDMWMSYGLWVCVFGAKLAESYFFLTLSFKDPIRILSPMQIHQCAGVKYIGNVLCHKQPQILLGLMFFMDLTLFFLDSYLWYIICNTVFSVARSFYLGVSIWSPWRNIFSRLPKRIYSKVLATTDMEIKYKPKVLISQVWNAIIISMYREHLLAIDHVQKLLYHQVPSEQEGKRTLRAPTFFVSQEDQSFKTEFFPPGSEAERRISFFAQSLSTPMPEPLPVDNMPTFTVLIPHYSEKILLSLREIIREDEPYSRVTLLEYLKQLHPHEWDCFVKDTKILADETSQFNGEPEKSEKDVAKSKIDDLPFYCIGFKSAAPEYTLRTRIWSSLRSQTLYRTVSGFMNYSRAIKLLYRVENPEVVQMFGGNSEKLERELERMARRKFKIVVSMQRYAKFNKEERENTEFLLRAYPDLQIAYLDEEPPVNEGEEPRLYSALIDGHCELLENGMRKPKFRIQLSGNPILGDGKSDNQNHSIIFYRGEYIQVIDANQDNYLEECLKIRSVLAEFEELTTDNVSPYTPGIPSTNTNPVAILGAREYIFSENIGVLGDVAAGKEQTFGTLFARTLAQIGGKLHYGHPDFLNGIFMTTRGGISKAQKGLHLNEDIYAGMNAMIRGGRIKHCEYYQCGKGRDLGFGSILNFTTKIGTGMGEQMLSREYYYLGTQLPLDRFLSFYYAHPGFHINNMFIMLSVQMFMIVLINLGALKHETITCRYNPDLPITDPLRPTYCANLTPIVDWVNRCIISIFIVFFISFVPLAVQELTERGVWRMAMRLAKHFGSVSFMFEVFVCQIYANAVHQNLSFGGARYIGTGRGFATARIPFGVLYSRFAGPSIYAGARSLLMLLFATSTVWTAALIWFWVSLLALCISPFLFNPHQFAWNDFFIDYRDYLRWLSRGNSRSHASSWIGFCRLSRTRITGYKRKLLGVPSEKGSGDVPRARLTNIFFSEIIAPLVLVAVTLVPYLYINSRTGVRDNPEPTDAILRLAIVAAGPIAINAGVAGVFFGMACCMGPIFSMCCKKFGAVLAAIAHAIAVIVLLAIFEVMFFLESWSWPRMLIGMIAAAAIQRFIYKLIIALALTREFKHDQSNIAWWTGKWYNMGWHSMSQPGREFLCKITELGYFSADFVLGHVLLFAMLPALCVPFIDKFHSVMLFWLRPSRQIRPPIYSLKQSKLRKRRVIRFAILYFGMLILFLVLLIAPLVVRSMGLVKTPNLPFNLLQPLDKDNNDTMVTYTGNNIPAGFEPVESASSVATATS

SMILES	IC50 (Aspergillus fumigatus) [µM]	IC50 (Candida albicans) [µM]	IC50 [1] [µM]	IC50 [2] [µM]
N[C@H]1CCN(C(=O)CN(CC(=O)NCc2cccc(Cl)c2)c2ccccc2Oc2ccccc2)C1 [OGT3935, 2-[[2-((S)-3-Aminopyrrolidin-1-yl)-2-oxo-ethyl]-(2-phenoxyphenyl)amino]-N-(3-chlorobenzyl)acetamide]	93	55	38	12
N[C@H]1CCN(C(=O)CN(CC(=O)NCc2cccc(Cl)c2)c2ccc(Oc3ccccc3)cc2)C1 [OGT4154, 2-[[2-((S)-3-Aminopyrrolidin-1-yl)-2-oxo-ethyl]-(4-phenoxyphenyl)amino]-N-(3-chlorobenzyl)acetamide]	12	22	–	–
N[C@H]1CCN(C(=O)CN(CC(=O)NCc2cc(F)cc(C(F)(F)F)c2)c2ccc(Oc3ccccc3)cc2)C1 [OGT4155, 2-[[2-((S)-3-Aminopyrrolidin-1-yl)-2-oxo-ethyl]-(4-phenoxyphenyl)amino]-N-[3-fluoro-5-(trifluoromethyl)benzyl]acetamide]	14	17	5.2	5.4
N[C@H]1CCN(C(=O)CN(CC(=O)NCc2cc(C(F)(F)F)cc(C(F)(F)F)c2)c2cccc(Oc3ccccc3)c2)C1 [OGT4165, 2-[[2-((S)-3-Aminopyrrolidin-1-yl)-2-oxo-ethyl]-(3-phenoxyphenyl)amino]-N-[3,5-bis-(trifluoromethyl)benzyl]acetamide]	43	19	6.2	2.7
N[C@H]1CCN(C(=O)CN(C(=O)/C=C/c2ccccc2)c2ccc(-c3cccc(OC(F)(F)F)c3)cc2)C1 [OGT4325, (E)-N-[2-((S)-3-Aminopyrrolidin-1-yl)-2-oxo-ethyl]-3-phenyl-N-(3′-trifluoromethoxy-biphenyl-4-yl)-acrylamide]	–	8	15.6	8.5
N[C@H]1CCN(C(=O)CN(C(=O)/C=C/c2ccccc2)c2ccc(Oc3ccccc3)cc2)C1 [OGT4344, (E)-N-[2-((S)-3-Aminopyrrolidin-1-yl)-2-oxo-ethyl]-N-(4-phenoxyphenyl)-3-phenylacrylamide]	12	27	49	34
CCOC(=O)c1cccc(-c2ccc(N(CC(=O)N3CC[C@H](N)C3)C(=O)/C=C/c3ccccc3)cc2)c1 [OGT4355, 4′-{[2-((S)-3-Aminopyrrolidin-1-yl)-2-oxo-ethyl]-[(E)-(3-phenylacryloyl)]-amino}-biphenyl-3-carboxylic acid, ethyl ester]	4	18	–	–
